Assay results reported in patent US11937601B2, “Method for treatment of soybean rust” (Globachem NV, priority 2020, dated 2024).

What was measured:
[1] = system: P. pachyrhizi; assay: Field trial, defoliation percent of soybean naturally infected by soybean rust; type: in vivo, Phakopsora pachyrhizi
Description: (§1) A field trial was conducted to evaluate the effect and efficacy of zoxamide on soybean rust disease on soybean (Glycine max) wherein plants were naturally infected by the disease (P. pachyrhizi). The trial was divided in the following 11 treatments: • TREATMENT 1: One treatment where plants were left untreated and in which natural progression of the disease was observed; • TREATMENT 2: One reference treatment which consisted of chlorothalonil applied in 1.3 kg/ha; • TREATMENT 3: One reference treatment which consisted of treatment with prothioconazole applied in 75 g/ha. • TREATMENT 4: One reference treatment with the mixture of prothioconazole and trifloxystrobin applied in amount of 70 g/ha of prothioconazole and 60 g/ha of trifloxystrobin. • TREATMENT 5: One reference treatment with wherein tebuconazole was applied in amount of 83.3 g/ha; mancozeb in amount of 1000 g/ha and picoxystrobin in amount of 66.6 g/ha. All four reference treatments (TREATMENTS 2-5) are currently available treatments of soybean rust, wherein the mentioned compositions were prepared from commercially available products prepared according to the respective label instructions and sprayed on the plants in amounts mentioned above and in Table 1 and 2. TREATMENTS 6-8: Three treatments wherein zoxamide was applied in different doses of (6) 180 g/ha, (7) 120 g/ha, and (8) 90 g/ha. TREATMENTS 9-11: Three treatments wherein zoxamide was applied together with prothioconazole in the following doses: (9) zoxamide 180 g/ha and prothioconazole 75 g/ha; (10) zoxamide 120 g/ha and prothioconazole 75 g/ha; and (11) zoxamide 90 g/ha and prothioconazole 75 g/ha. Each of the above treatments was applied on a plot of 3 meters by 6 meters in size and was repeated in 4 replicates. Zoxamide compositions used in this trial were prepared from the suspension concentrate containing 240 g/L of zoxamide, diluted with water to predetermined concentration, vegetable oil was added to concentration of 0.25% V/V, and such composition was sprayed on the plants in the predetermined amounts. First application of respective treatments was made when soybean plant reached BBCH growth stages around 60 to 75. Growth stages were defined according to Compendium of Growth Stage Identification Keys for Mono- and Dicotyledonous Plants, Extended BBCH scale, 2nd Edition 1997, ISBN 3-9520749-3-4. For each treatment, two applications of the respective treatment were made with 14 days interval between. Disease spread and defoliation were evaluated by visual estimation of degree of infection on leaves and defoliation. In Table 1 and Table 2, the following terms have the following meaning: % S—severity; % E—efficacy; 0.0%—disease progressed to maximum; 100.0%—no disease symptoms observed.

[2] = system: P. pachyrhizi; assay: Field trial, soybean rust severity and efficacy on naturally infected soybean; type: in vivo, Phakopsora pachyrhizi
Description: as §1

[3] = 21 days after second application, chlorothalonil 1296 g/ha
[4] = 28 days after second application, chlorothalonil 1296 g/ha
[5] = 7 days after first application, chlorothalonil 1296 g/ha
[6] = 7 days after second application, chlorothalonil 1296 g/ha
[7] = 14 days after first application, chlorothalonil 1296 g/ha
[8] = 14 days after second application, chlorothalonil 1296 g/ha
[9] = 21 days after second application, prothioconazole 75 g/ha
[10] = 28 days after second application, prothioconazole 75 g/ha
[11] = 7 days after first application, prothioconazole 75 g/ha
[12] = 7 days after second application, prothioconazole 75 g/ha
[13] = 14 days after first application, prothioconazole 75 g/ha
[14] = 14 days after second application, prothioconazole 75 g/ha
[15] = 21 days after second application, zoxamide 90 g/ha
[16] = 21 days after second application, zoxamide 120 g/ha
[17] = 21 days after second application, zoxamide 180 g/ha
[18] = 28 days after second application, zoxamide 90 g/ha
[19] = 28 days after second application, zoxamide 120 g/ha
[20] = 28 days after second application, zoxamide 180 g/ha
[21] = 7 days after first application, zoxamide 90 g/ha
[22] = 7 days after first application, zoxamide 120 g/ha
[23] = 7 days after first application, zoxamide 180 g/ha
[24] = 7 days after second application, zoxamide 90 g/ha
[25] = 7 days after second application, zoxamide 120 g/ha
[26] = 7 days after second application, zoxamide 180 g/ha
[27] = 14 days after first application, zoxamide 90 g/ha
[28] = 14 days after first application, zoxamide 120 g/ha
[29] = 14 days after first application, zoxamide 180 g/ha
[30] = 14 days after second application, zoxamide 90 g/ha
[31] = 14 days after second application, zoxamide 120 g/ha
[32] = 14 days after second application, zoxamide 180 g/ha

N#Cc1c(Cl)c(Cl)c(Cl)c(C#N)c1Cl [CHLOROTHALONIL, chlorothalonil]
Defoliation % [1, 3]: 50.00%
Efficacy % (defoliation) [1, 3]: 38.46%
Defoliation % [1, 4]: 60.00%
Efficacy % (defoliation) [1, 4]: 40.00%
% E (efficacy) [2, 5]: 100.00%
% S (severity) [2, 5]: 0.00%
% E (efficacy) [2, 6]: 76.47%
% S (severity) [2, 6]: 5.00%
% E (efficacy) [2, 7]: 66.67%
% S (severity) [2, 7]: 5.00%
% E (efficacy) [2, 8]: 76.47%
% S (severity) [2, 8]: 5.00%
% E (efficacy) [2, 3]: 68.11%
% S (severity) [2, 3]: 14.75%

OC(Cc1ccccc1Cl)(Cn1nc[nH]c1=S)C1(Cl)CC1 (stereo not shown) [PROTHIOCONAZOLE, prothioconazole]
Defoliation % [1, 9]: 50.00%
Efficacy % (defoliation) [1, 9]: 38.46%
Defoliation % [1, 10]: 70.00%
Efficacy % (defoliation) [1, 10]: 30.00%
% E (efficacy) [2, 11]: 100.00%
% S (severity) [2, 11]: 0.00%
% E (efficacy) [2, 12]: 85.88%
% S (severity) [2, 12]: 3.00%
% E (efficacy) [2, 13]: 100.00%
% S (severity) [2, 13]: 0.00%
% E (efficacy) [2, 14]: 85.88%
% S (severity) [2, 14]: 3.00%
% E (efficacy) [2, 9]: 62.16%
% S (severity) [2, 9]: 17.50%

CCC(C)(NC(=O)c1cc(Cl)c(C)c(Cl)c1)C(=O)CCl (stereo not shown) [ZOXAMIDE, 3,5-dichloro-N-(3-chloro-1-ethyl-1-methyl-2-oxopropyl)-4-methyl benzamide]
Defoliation % [1, 15]: 52.50%
Efficacy % (defoliation) [1, 15]: 35.38%
Defoliation % [1, 16]: 48.75%
Efficacy % (defoliation) [1, 16]: 40.00%
Defoliation % [1, 17]: 42.50%
Efficacy % (defoliation) [1, 17]: 47.69%
Defoliation % [1, 18]: 70.00%
Efficacy % (defoliation) [1, 18]: 30.00%
Defoliation % [1, 19]: 60.00%
Efficacy % (defoliation) [1, 19]: 40.00%
Defoliation % [1, 20]: 51.25%
Efficacy % (defoliation) [1, 20]: 48.75%
% E (efficacy) [2, 21]: 100.00%
% S (severity) [2, 21]: 0.00%
% E (efficacy) [2, 22]: 100.00%
% S (severity) [2, 22]: 0.00%
% E (efficacy) [2, 23]: 100.00%
% S (severity) [2, 23]: 0.00%
% E (efficacy) [2, 24]: 85.88%
% S (severity) [2, 24]: 3.00%
% E (efficacy) [2, 25]: 100.00%
% S (severity) [2, 25]: 0.00%
% E (efficacy) [2, 26]: 100.00%
% S (severity) [2, 26]: 0.00%
% E (efficacy) [2, 27]: 100.00%
% S (severity) [2, 27]: 0.00%
% E (efficacy) [2, 28]: 100.00%
% S (severity) [2, 28]: 0.00%
% E (efficacy) [2, 29]: 100.00%
% S (severity) [2, 29]: 0.00%
% E (efficacy) [2, 30]: 76.47%
% S (severity) [2, 30]: 5.00%
% E (efficacy) [2, 31]: 85.88%
% S (severity) [2, 31]: 3.00%
% E (efficacy) [2, 32]: 100.00%
% S (severity) [2, 32]: 0.00%
% E (efficacy) [2, 15]: 70.27%
% S (severity) [2, 15]: 13.75%
% E (efficacy) [2, 16]: 81.08%
% S (severity) [2, 16]: 8.75%
% E (efficacy) [2, 17]: 90.27%
% S (severity) [2, 17]: 4.50%
